One data set has as its system Liver microsome. In words: Half life in human liver microsomes. Type of data set: ADME.
Data set [1] in a line: Half life in mouse liver microsomes. In kind it is ADME.
Another data set deals with T1, dCTP pyrophosphatase 1 (Homo sapiens, UniProt Q9H773).
T1 sequence (Q9H773 whole entry): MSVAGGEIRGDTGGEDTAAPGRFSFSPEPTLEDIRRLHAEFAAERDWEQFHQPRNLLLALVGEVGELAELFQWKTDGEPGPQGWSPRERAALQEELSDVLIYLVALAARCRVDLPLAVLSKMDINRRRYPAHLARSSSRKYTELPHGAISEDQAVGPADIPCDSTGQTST
The data set can be described thus: Inhibition of human recombinant full length dCTPase expressed in Escherichia coli BL21(DE3)pLysS using dCTP as substrate after 1 hr by HTS-adapted Malachite Green assay.

Data set [2] can be described thus: Aqueous solubility of the compound. As to conditions: buffer. Type of data set: physicochemical.
Data set [3] is described as follows: Fraction unbound in plasma (unknown origin). In kind it is ADME, cell-free.
Data set [4] can be described thus: Metabolic stability of plasma (unknown origin) assessed as compound remaining after 4 hrs. As to conditions: read-out: Stability. In kind it is ADME, cell-free.
The next data set has as its target T2, Cytochrome P450 1A2 (Homo sapiens, UniProt P05177).
T2 sequence (P05177 whole entry): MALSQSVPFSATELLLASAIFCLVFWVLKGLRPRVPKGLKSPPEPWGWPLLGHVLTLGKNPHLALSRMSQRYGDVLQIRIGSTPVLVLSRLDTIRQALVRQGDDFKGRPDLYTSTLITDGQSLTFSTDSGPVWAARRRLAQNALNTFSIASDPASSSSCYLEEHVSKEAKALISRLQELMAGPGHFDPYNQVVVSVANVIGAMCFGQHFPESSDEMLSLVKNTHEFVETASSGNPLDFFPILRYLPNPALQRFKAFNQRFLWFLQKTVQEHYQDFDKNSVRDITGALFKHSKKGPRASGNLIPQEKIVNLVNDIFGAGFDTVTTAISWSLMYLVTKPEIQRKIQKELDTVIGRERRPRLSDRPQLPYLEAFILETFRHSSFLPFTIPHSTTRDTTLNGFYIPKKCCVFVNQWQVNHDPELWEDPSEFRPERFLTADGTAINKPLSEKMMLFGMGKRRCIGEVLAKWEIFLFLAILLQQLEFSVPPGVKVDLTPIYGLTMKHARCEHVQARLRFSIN
The data set can be described thus: Inhibition of CYP1A2 (unknown origin) using phenacetin as substrate preincubated for 10 mins followed by NADPH addition by LC/MS/MS analysis. In kind it is ADME.

The nature of data set [5]: Apparent permeability of the compound from apical to basolateral side. In kind it is physicochemical.
The next data set deals with Cytochrome P450 2C19 (Homo sapiens, UniProt P33261). In words: Inhibition of CYP2C19 (unknown origin) using mephenytoin as substrate preincubated for 10 mins followed by NADPH addition by LC/MS/MS analysis. In kind it is ADME.
Cytochrome P450 2C19, sequence (P33261 whole entry): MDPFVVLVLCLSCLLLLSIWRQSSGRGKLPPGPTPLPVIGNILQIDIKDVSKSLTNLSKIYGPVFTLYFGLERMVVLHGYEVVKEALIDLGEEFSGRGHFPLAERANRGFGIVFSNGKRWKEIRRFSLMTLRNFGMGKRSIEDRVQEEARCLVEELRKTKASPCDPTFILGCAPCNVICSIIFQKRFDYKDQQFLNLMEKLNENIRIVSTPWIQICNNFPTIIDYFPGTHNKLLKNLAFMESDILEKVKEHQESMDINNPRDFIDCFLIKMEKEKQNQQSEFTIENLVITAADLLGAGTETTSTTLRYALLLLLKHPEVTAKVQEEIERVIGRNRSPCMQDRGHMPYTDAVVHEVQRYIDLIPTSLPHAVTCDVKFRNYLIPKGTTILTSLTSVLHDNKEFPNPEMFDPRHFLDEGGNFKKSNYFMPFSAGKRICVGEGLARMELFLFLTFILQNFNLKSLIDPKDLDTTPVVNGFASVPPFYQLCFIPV
For data set [6], the target named is T3, Cytochrome P450 3A4 (Homo sapiens, UniProt P08684). The data set can be described thus: Inhibition of CYP3A4 (unknown origin) using testostrone as substrate preincubated for 10 mins followed by NADPH addition by LC/MS/MS analysis. In kind it is ADME.
T3 sequence (P08684 whole entry): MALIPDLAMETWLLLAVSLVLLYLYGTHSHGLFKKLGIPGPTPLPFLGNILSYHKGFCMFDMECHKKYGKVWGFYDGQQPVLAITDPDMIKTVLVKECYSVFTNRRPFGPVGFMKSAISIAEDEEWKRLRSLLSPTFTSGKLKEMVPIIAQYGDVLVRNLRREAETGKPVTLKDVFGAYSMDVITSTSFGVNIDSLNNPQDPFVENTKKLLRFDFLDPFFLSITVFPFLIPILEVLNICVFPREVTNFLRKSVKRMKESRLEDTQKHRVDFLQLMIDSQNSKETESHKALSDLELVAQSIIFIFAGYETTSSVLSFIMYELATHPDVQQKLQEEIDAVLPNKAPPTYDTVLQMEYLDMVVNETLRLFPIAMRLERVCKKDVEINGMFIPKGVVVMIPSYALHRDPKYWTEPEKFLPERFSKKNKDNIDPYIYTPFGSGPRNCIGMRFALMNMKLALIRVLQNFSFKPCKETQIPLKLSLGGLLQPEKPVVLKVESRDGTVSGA
Data set [7] is described as follows: Efflux ratio of apparent permeability of the compound. In kind it is ADME.
A further data set deals with Cytochrome P450 2C9 (Homo sapiens, UniProt P11712). The data set can be described thus: Inhibition of CYP2C9 (unknown origin) using diclofenac as substrate preincubated for 10 mins followed by NADPH addition by LC/MS/MS analysis. In kind it is ADME.
Cytochrome P450 2C9, sequence (P11712 whole entry): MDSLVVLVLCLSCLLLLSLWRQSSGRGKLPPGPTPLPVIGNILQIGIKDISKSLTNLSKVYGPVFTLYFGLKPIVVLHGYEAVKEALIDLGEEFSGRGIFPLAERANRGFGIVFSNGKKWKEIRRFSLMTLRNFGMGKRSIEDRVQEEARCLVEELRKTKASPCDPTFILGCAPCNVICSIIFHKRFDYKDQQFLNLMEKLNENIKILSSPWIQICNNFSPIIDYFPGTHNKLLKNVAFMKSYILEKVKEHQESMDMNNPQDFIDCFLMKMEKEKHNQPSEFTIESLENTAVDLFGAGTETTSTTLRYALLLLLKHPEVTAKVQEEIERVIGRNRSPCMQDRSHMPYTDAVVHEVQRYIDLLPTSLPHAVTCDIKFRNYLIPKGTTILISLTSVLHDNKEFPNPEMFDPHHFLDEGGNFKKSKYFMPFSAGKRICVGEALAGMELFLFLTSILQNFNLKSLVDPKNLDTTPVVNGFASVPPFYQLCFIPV
The target in data set [8] is T3, Cytochrome P450 3A4. The data set can be described thus: Inhibition of CYP3A4 (unknown origin) using midazolam as substrate preincubated for 10 mins followed by NADPH addition by LC/MS/MS analysis. In kind it is ADME.
The next data set addresses Cytochrome P450 2D6 (Homo sapiens, UniProt P10635). The data set can be described thus: Inhibition of CYP2D6 (unknown origin) using bufuralol as substrate preincubated for 10 mins followed by NADPH addition by LC/MS/MS analysis. In kind it is ADME.
Data set [9] in a line: Mutagenicity in human HL60 cells assessed as gammaH2AX foci formation at 2.5 uM after 24 hrs by immunofluorescence staining-based Zeiss LSM-780 confocal microscopy. Type of data set: toxicity, cell-based. As to conditions: hl-60, 24 h.
The nature of data set [10]: Photostability of compound at room temperature after 5 months by LC/MS analysis. In kind it is physicochemical. As to conditions: 3652.5 h.
Data set [11] can be described thus: Mutagenicity in human HL60 cells assessed as 53BP1 foci formation at 2.5 uM after 24 hrs by immunofluorescence staining-based Zeiss LSM-780 confocal microscopy. Type of data set: toxicity, cell-based. To be noted: hl-60, 24 h.
Data set [12] in a line: Mutagenicity in human HL60 cells assessed as caspase 3 cleavage by Western blot analysis. Type of data set: toxicity, cell-based. To be noted: hl-60.
Data set [13] in a line: Mutagenicity in human HL60 cells assessed as Chk1 phosphorylation at S345 by Western blot analysis. Type of data set: toxicity, cell-based. As to conditions: hl-60.

Values after ≈ are worked out from the molar mass of the structure shown.

Cytochrome P450 2D6, sequence (P10635 whole entry): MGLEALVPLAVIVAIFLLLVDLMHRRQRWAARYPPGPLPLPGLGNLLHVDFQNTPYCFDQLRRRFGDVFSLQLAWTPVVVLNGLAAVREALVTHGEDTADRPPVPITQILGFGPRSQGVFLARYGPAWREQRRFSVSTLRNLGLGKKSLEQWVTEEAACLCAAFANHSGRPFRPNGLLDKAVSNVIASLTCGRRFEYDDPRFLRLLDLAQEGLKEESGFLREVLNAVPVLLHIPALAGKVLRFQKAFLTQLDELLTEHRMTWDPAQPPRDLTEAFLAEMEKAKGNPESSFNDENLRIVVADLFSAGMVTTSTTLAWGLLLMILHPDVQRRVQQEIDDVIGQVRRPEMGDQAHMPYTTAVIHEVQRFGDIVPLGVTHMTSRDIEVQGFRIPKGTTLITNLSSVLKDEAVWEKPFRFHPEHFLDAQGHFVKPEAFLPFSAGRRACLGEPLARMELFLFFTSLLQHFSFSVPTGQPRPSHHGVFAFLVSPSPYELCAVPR

For `Cc1nc2c([N+](=O)[O-])c(Cl)c(Cl)cc2n1Cc1ccc(-n2cccn2)cc1`, the values for the t1/2 (in the data set on Liver microsome; in [1]) were 38 min and 22 min, respectively. In addition, the IC50 on dCTP pyrophosphatase 1 was determined as 75 nM.
Take `Cc1nc2c([N+](=O)[O-])c(Cl)c(Cl)cc2n1Cc1ccc(C=O)cc1`: the IC50 on dCTP pyrophosphatase 1 was 133 nM.
On the same count and under the same terms, the result for `Cc1nc(Cn2c(C)nc3c([N+](=O)[O-])c(Cl)c(Cl)cc32)cs1` reads 240 nM; that for `COC(=O)c1ccc(Cn2c(C)nc3c([N+](=O)[O-])c(Cl)c(Cl)cc32)cc1`, 95 nM; that for `Cc1nc2c([N+](=O)[O-])c(Cl)c(Cl)cc2n1Cc1cccc(B(O)O)c1`, 46 nM.
For the compound `Cc1n[nH]c(C)c1CCn1c(C)nc2c([N+](=O)[O-])c(Cl)c(Cl)cc21`, the t1/2 is on record as 6 min in the data set with Liver microsome and 7 min in [1]. In addition, the IC50 on dCTP pyrophosphatase 1 worked out at 190 nM.
For the compound `COc1ccc(Cn2cnc3ccccc32)cc1`, at dCTP pyrophosphatase 1, the IC50 was more than 100000 nM.
For the compound `COc1ccc(Cn2c(C)nc3ccccc32)cc1`, at dCTP pyrophosphatase 1, the IC50 was more than 100000 nM.
Consider `Cc1nc2c([N+](=O)[O-])c(Cl)c(Cl)cc2n1Cc1ccccc1B(O)O`, for which the IC50 on dCTP pyrophosphatase 1 came to 82 nM.
Consider `Cc1nc2c([N+](=O)[O-])c(Cl)c(Cl)cc2n1Cc1ccc(-n2cccc2)cc1`, for which the IC50 at dCTP pyrophosphatase 1 worked out at 331 nM.
For `Cc1cc2c(nc(C)n2C(C)c2ccccc2)c([N+](=O)[O-])c1C` (centres undefined), the IC50 at dCTP pyrophosphatase 1 turned out to be 250 nM.
Take `O=[N+]([O-])c1c(Cl)c(Cl)cc2c1nc(C1CC1)n2Cc1ccc(B(O)O)cc1`: the results for the t1/2 (in the data set with Liver microsome; in data set [1]) were 268 min and 13 min, respectively.
As for `COc1ccc(Cn2cnc3cc(C)c(C)cc32)cc1`, the IC50 at dCTP pyrophosphatase 1 is more than 100000 nM.
As to `Cc1nc2c([N+](=O)[O-])c(Cl)c(Cl)cc2n1Cc1ccc(O)cc1`, in [2], the solubility came to 11 µM (≈ 3.87 µg/mL). The Fu in [3] turned out to be 0.7%. The IC50 on dCTP pyrophosphatase 1 was 21 nM. Also, the remaining at 4 h in data set [4] turned out to be 96%.
With `Cc1nc2c([N+](=O)[O-])c(Cl)c(Cl)cc2n1-c1ccccc1`, the IC50 on dCTP pyrophosphatase 1 was found to be 85 nM.
Same read-out and setting: then `Cc1nc2c([N+](=O)[O-])c(Cl)c(Cl)cc2n1Cc1ccc(C(=O)O)cc1`, with 73 nM.
Still for that read-out and setting: the result for `COc1ccc(Cn2c(C)nc3cc(Cl)c(Cl)cc32)cc1` reads 12000 nM; that for `COc1ccc(Cn2c(C)nc3c([N+](=O)[O-])cccc32)cc1`, 1450 nM.
As for `Cc1nc2c([N+](=O)[O-])c(F)c(F)cc2n1Cc1ccc(B(O)O)cc1`, the IC50 on dCTP pyrophosphatase 1 came out at 529 nM.
On the same count and under the same terms, the result for `Cc1nc2c([N+](=O)[O-])c(Cl)c(Cl)cc2n1CCc1ccc(B(O)O)cc1` reads 205 nM.
With `COc1ccc(Cn2c(C)nc3c([N+](=O)[O-])c(Cl)c(Cl)cc32)cc1`, the t1/2 stood at 30 min with Liver microsome and 8 min in data set [1].
On to `Cc1nc2cc(Cl)c(Cl)cc2n1Cc1ccc(B(O)O)cc1`, for which, at dCTP pyrophosphatase 1, the IC50 was found to be 248 nM.
The same measure, in the same setting: the result for `Cc1nc2c([N+](=O)[O-])c(Cl)c(Cl)cc2n1Cc1ccccc1` reads 49 nM; that for `Cc1nc2c([N+](=O)[O-])c(Cl)c(Cl)cc2n1C(=O)c1ccccc1`, 96 nM.
For `Cc1nc2c([N+](=O)[O-])c(Cl)c(Cl)cc2n1Cc1ccc(C#N)cc1`, the IC50 at dCTP pyrophosphatase 1 came to 165 nM.
On the same count and under the same terms, then `Cc1ccc(Cn2c(C)nc3c([N+](=O)[O-])c(Cl)c(Cl)cc32)cc1`, with 19 nM.
Compound `Cc1nc2c([N+](=O)[O-])c(Cl)c(Cl)cc2n1Cc1ccc(B2OC(=O)CN(C)CC(=O)O2)cc1` had a solubility in data set [2] of more than 100 µM. Also, the IC50 is 377 µM at Cytochrome P450 1A2; 2930 nM at Cytochrome P450 2C19; 21.9 µM against Cytochrome P450 3A4 [6]; 1720 nM at Cytochrome P450 2C9; 28.1 µM against Cytochrome P450 3A4 [8]; 47 nM at dCTP pyrophosphatase 1. The compound further came in with an IC50 against Cytochrome P450 2D6 of 16.8 µM. Moreover, the t1/2 with Liver microsome is on record as 11 min; in data set [1], 109 min. The Papp in [5] amounted to 8.66 ×10⁻⁶ cm/s. Besides, in [7], the Ratio was found to be 1.51. The Fu in data set [3] turned out to be 0.8%. Moreover, in data set [4], the remaining at 4 h is 86%.
As to `COc1ccc(Cn2c(C)nc3c([N+](=O)[O-])c(C)c(C)cc32)cc1`, the IC50 at dCTP pyrophosphatase 1 was 57 nM.
On the same count and under the same terms, then `Cc1nc2c([N+](=O)[O-])c(Cl)c(Cl)cc2n1Cc1ccc(Cl)nc1`, with 185 nM; and `CC(=O)Oc1ccc(Cn2c(C)nc3c([N+](=O)[O-])c(Cl)c(Cl)cc32)cc1`, with 34 nM.
In the case of `COc1ccc(Cn2c(C)nc3cc(C)c(C)cc32)cc1`, the IC50 on dCTP pyrophosphatase 1 amounted to 22000 nM.
On to `Cc1nc2c([N+](=O)[O-])c(Cl)c(Cl)cc2n1Cc1ccc(B(O)O)cc1`, for which the Activity entry in data set [9], in [11], in [12] and in [13] was “Non-toxic” each time. Moreover, the Stability entry in data set [10] was “Stable”. The same compound displayed a solubility in data set [2] of 52 µM (≈ 19.8 µg/mL). Also, the t1/2 is on record as 72 min with Liver microsome and 197 min in data set [1]. Moreover, the Fu in [3] is on record as 0.1%. The IC50 on dCTP pyrophosphatase 1 stood at 46 nM. Moreover, the remaining at 4 h in data set [4] amounted to 11%.

Source of the values: ChEMBL document CHEMBL3769365, “Discovery of the First Potent and Selective Inhibitors of Human dCTP Pyrophosphatase 1” (J Med Chem, 2016).
